pEC50, pIC50: −log10 of the molar value.
Key:
HepG2 = test: Cytotoxicity against human HepG2 cells; assay type: cell-based
D(1A) dopamine receptor [1] = target: T1, D(1A) dopamine receptor (Homo sapiens, UniProt P21728); test: Agonist activity at human wild-type D1 receptor expressed in CHO cells assessed as cAMP level by HTRF assay; assay type: functional, cell-based
[2] = Ratio of drug level in brain to plasma in Swiss mouse at 5 mg/kg, sc; assay type: ADME, organism-based; conditions: read-out: BPR
[3] = target: 5-hydroxytryptamine receptor 6 (Homo sapiens, UniProt P50406); test: Agonist activity at human 5-HT6 receptor expressed in 1321N1 cells assessed as cAMP by HTRF assay; assay type: functional, cell-based
Chain of 5-hydroxytryptamine receptor 6 (P50406 whole entry): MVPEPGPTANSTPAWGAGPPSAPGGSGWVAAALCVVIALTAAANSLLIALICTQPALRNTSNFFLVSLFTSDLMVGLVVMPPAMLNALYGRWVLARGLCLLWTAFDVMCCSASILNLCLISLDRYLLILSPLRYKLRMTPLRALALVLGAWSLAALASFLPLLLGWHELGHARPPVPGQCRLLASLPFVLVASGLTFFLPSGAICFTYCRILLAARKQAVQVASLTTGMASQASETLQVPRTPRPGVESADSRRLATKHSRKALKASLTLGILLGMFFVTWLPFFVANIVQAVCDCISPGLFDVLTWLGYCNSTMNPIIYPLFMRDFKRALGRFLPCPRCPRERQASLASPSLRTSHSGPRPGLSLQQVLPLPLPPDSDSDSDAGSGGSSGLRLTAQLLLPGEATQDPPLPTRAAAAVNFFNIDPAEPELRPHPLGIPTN

[4] = target: T2, Alpha-1A adrenergic receptor (Homo sapiens, UniProt P35348); test: Antagonist activity at human wild-type alpha 1A receptor expressed in CHO cells assessed as EP-induced calcium by HTRF assay; assay type: functional, cell-based
T2 sequence (P35348 whole entry): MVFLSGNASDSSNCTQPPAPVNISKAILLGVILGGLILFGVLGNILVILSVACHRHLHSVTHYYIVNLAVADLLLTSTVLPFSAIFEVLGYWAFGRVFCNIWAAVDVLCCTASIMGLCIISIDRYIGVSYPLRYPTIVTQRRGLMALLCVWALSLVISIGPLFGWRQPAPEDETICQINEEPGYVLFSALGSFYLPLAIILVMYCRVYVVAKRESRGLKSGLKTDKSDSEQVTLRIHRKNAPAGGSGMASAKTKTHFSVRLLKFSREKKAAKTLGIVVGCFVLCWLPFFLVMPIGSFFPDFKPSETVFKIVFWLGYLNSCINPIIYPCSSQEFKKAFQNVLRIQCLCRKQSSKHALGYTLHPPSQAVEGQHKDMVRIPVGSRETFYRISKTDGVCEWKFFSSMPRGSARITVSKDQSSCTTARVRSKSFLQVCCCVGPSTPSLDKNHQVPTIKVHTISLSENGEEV

[5] = target: T3, Delta-type opioid receptor (Homo sapiens, UniProt P41143); test: Antagonist activity at human wild-type opioid-delta 1 receptor expressed in CHO-K1 cells assessed as DPDPE-induced cAMP by HTRF assay; assay type: functional, cell-based
T3 sequence (P41143 whole entry): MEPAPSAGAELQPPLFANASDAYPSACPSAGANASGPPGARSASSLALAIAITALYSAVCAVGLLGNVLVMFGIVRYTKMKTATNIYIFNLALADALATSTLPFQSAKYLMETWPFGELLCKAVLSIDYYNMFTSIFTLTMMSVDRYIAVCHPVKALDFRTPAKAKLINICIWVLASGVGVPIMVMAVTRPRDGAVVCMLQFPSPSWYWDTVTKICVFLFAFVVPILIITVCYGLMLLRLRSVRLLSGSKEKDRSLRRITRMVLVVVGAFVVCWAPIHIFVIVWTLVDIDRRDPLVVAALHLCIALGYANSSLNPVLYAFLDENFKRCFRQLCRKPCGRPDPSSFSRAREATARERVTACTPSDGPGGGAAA

[6] = target: T3, Delta-type opioid receptor; test: Agonist activity at human wild-type opioid-delta 1 receptor expressed in CHO-K1 cells assessed as cAMP level by HTRF assay; assay type: functional, cell-based
Mu-type opioid receptor = Mu-type opioid receptor (Homo sapiens, UniProt P35372); test: Agonist activity at human wild-type opioid-mu receptor expressed in CHO-K1 cells assessed as cAMP level by HTRF assay; assay type: functional, cell-based
Chain of Mu-type opioid receptor (P35372 whole entry): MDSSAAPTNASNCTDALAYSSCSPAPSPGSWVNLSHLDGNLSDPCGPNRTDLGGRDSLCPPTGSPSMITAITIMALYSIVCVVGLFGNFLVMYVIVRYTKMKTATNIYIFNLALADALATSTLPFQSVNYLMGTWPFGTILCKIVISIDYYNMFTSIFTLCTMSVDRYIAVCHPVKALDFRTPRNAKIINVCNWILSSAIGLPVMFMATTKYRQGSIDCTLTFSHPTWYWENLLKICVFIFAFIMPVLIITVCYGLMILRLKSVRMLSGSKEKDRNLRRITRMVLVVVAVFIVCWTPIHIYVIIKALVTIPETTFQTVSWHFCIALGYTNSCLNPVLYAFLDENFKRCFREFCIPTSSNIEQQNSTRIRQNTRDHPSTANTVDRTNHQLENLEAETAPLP

Vasopressin V1a receptor = Vasopressin V1a receptor (Homo sapiens, UniProt P37288); test: Antagonist activity at human wild-type AVPR1A receptor expressed in CHO-K1 cells assessed as vassopressin-induced calcium by FDSS assay; assay type: functional, cell-based
Chain of Vasopressin V1a receptor (P37288 whole entry): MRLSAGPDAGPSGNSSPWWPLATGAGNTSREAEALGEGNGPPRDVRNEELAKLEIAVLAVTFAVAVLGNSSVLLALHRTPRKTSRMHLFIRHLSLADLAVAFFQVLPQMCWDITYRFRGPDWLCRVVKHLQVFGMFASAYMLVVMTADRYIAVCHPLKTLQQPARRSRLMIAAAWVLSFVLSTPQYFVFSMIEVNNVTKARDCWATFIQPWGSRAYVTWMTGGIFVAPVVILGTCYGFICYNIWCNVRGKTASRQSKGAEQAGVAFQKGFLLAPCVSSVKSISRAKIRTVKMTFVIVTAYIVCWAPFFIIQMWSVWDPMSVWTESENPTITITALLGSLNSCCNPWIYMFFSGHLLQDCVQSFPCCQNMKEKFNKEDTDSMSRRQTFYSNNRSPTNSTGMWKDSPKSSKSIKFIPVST

[7] = target: Beta-1 adrenergic receptor (Homo sapiens, UniProt P08588); test: Antagonist activity at human beta1 receptor expressed in CHO-K1 cells assessed as isoproterenol-induced cAMP level by HTRF assay; assay type: functional, cell-based
Chain of Beta-1 adrenergic receptor (P08588 whole entry): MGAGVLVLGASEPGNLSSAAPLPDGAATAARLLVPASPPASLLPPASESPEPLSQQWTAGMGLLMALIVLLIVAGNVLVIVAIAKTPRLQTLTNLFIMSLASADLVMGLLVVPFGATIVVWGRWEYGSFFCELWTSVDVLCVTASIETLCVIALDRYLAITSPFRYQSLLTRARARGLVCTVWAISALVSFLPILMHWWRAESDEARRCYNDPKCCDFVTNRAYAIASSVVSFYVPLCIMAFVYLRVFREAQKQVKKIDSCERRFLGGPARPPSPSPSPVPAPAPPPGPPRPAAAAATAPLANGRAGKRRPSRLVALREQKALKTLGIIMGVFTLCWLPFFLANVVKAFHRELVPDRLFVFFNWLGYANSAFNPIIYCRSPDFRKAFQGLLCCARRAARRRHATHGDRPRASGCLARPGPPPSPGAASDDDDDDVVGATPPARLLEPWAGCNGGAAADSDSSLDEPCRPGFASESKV

[8] = target: T4, Cholecystokinin receptor type A (Homo sapiens, UniProt P32238); test: Agonist activity at human wild-type CCKA receptor expressed in CHO-K1 cells assessed as calcium level by FDSS assay; assay type: functional, cell-based
T4 sequence (P32238 whole entry): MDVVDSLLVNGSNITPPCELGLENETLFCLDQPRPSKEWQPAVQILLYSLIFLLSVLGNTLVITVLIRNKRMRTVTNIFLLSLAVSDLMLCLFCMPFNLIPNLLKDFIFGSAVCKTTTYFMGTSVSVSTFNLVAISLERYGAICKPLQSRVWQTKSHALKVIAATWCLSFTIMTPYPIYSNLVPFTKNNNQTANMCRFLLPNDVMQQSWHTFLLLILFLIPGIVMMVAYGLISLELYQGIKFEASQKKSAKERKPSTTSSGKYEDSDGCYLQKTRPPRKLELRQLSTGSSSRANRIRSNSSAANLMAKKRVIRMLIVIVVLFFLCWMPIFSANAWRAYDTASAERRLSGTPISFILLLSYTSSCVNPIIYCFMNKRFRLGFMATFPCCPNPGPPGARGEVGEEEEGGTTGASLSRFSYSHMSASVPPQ

[9] = Intrinsic clearance in human liver microsomes at 1 uM by HPLC/MS/MS analysis; assay type: ADME; conditions: read-out: CLH
[10] = Fraction unbound in rat plasma at 5 uM after 4.5 hrs by LC-MS/MS analysis; assay type: ADME, cell-free
D(2) dopamine receptor [11] = target: T5, D(2) dopamine receptor (Homo sapiens, UniProt P14416); test: Agonist activity at human wild-type D2 receptor expressed in CHO-K1 cells assessed as cAMP level by HTRF assay; assay type: functional, cell-based
T5 sequence (P14416 whole entry): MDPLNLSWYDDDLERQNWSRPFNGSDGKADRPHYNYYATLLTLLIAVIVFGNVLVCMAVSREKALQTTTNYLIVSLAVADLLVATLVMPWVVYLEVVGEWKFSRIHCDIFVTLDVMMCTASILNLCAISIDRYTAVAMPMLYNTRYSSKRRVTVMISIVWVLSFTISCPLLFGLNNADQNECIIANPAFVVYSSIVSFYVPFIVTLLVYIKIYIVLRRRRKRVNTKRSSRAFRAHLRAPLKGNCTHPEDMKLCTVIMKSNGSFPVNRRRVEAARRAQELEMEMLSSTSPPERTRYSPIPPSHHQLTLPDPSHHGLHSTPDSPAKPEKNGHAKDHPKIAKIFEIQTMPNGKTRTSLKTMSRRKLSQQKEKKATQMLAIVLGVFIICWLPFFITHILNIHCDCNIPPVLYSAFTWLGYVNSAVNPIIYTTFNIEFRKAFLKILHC

[12] = Chemical stability of compound in buffer at pH 7.4 assessed as compound remaining at 10 mg/ml after 1 day; assay type: physicochemical; conditions: read-out: Stability
[13] = Chemical stability of compound in DMSO assessed as compound remaining at 10 mg/ml after 24 days at room temperature under air; assay type: physicochemical; conditions: read-out: Stability
Cytochrome P450 2C19 = Cytochrome P450 2C19 (Homo sapiens, UniProt P33261); test: Inhibition of human CYP2C19 by LC-MS analysis; assay type: ADME
Chain of Cytochrome P450 2C19 (P33261 whole entry): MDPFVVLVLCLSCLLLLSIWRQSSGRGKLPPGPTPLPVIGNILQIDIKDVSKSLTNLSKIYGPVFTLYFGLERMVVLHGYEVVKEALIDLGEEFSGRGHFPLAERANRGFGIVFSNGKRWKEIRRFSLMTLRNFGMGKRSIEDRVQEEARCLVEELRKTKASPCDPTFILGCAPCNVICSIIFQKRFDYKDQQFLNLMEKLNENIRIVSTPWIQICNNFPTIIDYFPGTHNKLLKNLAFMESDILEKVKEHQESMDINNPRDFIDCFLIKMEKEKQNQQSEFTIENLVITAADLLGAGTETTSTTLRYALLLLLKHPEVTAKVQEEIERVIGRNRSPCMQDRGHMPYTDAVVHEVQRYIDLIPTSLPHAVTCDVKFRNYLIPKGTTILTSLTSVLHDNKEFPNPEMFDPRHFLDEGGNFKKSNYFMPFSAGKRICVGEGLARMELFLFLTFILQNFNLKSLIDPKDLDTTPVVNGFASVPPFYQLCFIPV

[14] = target: Kappa-type opioid receptor (Homo sapiens, UniProt P41145); test: Antagonist activity at human wild-type opioid-kappa 1 receptor expressed in CHO-K1 cells assessed as U50488-induced cAMP by HTRF assay; assay type: functional, cell-based
Chain of Kappa-type opioid receptor (P41145 whole entry): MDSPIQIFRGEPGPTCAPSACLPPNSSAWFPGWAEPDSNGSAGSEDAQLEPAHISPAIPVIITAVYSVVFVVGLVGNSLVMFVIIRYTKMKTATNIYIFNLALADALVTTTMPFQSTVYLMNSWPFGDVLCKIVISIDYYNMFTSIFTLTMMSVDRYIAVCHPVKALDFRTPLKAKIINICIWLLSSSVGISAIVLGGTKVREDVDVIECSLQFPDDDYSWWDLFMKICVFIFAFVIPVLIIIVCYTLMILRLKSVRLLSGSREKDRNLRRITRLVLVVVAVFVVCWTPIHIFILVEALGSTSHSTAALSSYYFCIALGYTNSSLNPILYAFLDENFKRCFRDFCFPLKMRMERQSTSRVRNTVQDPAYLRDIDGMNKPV

D(1A) dopamine receptor [15] = target: T1, D(1A) dopamine receptor; test: Antagonist activity at human wild-type D1 receptor expressed in CHO cells assessed as dopamine-induced cAMP by HTRF assay; assay type: functional, cell-based
Cytochrome P450 2C8 = target: T6, Cytochrome P450 2C8 (Homo sapiens, UniProt P10632); test: Inhibition of human CYP2C8 by LC-MS analysis; assay type: ADME
T6 sequence (P10632 whole entry): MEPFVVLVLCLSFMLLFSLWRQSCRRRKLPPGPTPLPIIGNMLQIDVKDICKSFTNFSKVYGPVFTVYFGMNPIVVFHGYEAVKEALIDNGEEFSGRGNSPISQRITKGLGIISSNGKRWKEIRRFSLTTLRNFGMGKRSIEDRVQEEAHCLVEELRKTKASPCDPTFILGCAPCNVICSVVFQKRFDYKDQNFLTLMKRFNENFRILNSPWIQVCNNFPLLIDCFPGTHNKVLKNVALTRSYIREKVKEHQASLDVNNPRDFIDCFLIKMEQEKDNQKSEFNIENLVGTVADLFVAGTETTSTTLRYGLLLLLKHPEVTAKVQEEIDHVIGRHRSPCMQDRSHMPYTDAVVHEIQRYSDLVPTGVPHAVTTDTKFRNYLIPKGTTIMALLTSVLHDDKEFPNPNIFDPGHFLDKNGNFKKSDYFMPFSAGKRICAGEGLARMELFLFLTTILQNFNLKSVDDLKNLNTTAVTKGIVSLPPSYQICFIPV

human MDR1 [16] = test: Permeability across apical to basolateral in MDCK expressing human MDR1 at 5 uM by LC-MS/MS method; assay type: ADME, cell-based, Canis lupus familiaris; conditions: dog, read-out: permeability
D(2) dopamine receptor [17] = target: T5, D(2) dopamine receptor; test: Antagonist activity at human wild-type D2 receptor expressed in CHO-K1 cells assessed as dopamine-induced cAMP by HTRF assay; assay type: functional, cell-based
human MDR1 [18] = test: Efflux ratio of permeability across basolateral to apical side over apical to basolateral side in MDCK cells expressing human MDR1 at 5 uM by LC-MS/MS method; assay type: ADME, cell-based, Canis lupus familiaris; conditions: dog
[19] = Chemical stability of compound in 0.1N HCL and 0.5% H2O2 assessed as compound remaining at 10 mg/ml after 1 day; assay type: physicochemical; conditions: read-out: Stability

T1 sequence (P21728 whole entry): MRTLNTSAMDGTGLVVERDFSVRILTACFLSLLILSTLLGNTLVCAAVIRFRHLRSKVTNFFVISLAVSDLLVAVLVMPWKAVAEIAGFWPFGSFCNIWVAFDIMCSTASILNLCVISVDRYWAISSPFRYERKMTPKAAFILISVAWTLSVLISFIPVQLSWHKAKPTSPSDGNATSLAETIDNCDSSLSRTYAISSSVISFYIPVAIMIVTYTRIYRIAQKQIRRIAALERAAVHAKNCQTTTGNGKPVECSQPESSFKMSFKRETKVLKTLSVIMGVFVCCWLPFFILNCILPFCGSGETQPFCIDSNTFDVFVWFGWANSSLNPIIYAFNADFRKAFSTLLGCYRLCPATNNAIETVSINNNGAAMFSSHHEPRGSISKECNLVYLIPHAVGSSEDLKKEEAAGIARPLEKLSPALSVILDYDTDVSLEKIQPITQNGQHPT

## CB1C=Cc2c(cccc2OCC(O)CN(C)C)N1 (centres undefined)
HepG2
  EC20: 59 µM
D(1A) dopamine receptor [1]
  pEC50: < 5.30
[2]
  Kp: 19
[3]
  pEC50: < 5.30
[4]
  pIC50: < 5.30
[5]
  pIC50: < 5.30
[6]
  pEC50: < 5.30
Mu-type opioid receptor
  pEC50: < 5.30
Vasopressin V1a receptor
  pIC50: < 5.30
[7]
  pIC50: 6.70
[8]
  pEC50: < 5.30
[9]
  microsomal CLint at 1 µM: 11 µL/min/mg
[10]
  fraction unbound at 4.5 h, 5 µM: 0.29
D(2) dopamine receptor [11]
  pEC50: < 5.30
[12]
  remaining at 24 h, 10 mg/ml: 96%
[13]
  remaining at 576 h, 10 mg/ml: 97%
Cytochrome P450 2C19
  pIC50: < 5.00
[14]
  pIC50: < 5.30
D(1A) dopamine receptor [15]
  pIC50: < 5.30
Cytochrome P450 2C8
  pIC50: < 5.00
Human MDR1 [16]
  Papp A→B at 5 µM: 2.3 ×10⁻⁶ cm/s
D(2) dopamine receptor [17]
  pIC50: < 5.30

## CB1C=Cc2cccc(OCC(O)CNC(C)C)c2N1 (centres undefined)
HepG2
  EC20: 18.7 µM
D(1A) dopamine receptor [1]
  pEC50: < 5.30
[2]
  Kp: 13
[3]
  pEC50: < 5.30
[4]
  pIC50: < 5.30
Human MDR1 [18]
  efflux ratio at 5 µM: 2.1
Mu-type opioid receptor
  pEC50: < 5.30
Vasopressin V1a receptor
  pIC50: < 5.30
[7]
  pIC50: 6.20
[8]
  pEC50: < 5.30
[9]
  microsomal CLint at 1 µM: 8.7 µL/min/mg
[19]
  remaining at 24 h, 10 mg/ml: 0%
[10]
  fraction unbound at 4.5 h, 5 µM: 0.096
D(2) dopamine receptor [11]
  pEC50: < 5.30
[12]
  remaining at 24 h, 10 mg/ml: 93%
[13]
  remaining at 576 h, 10 mg/ml: 98%
Cytochrome P450 2C19
  pIC50: < 5.00
[14]
  pIC50: < 5.30
D(1A) dopamine receptor [15]
  pIC50: < 5.30
Cytochrome P450 2C8
  pIC50: < 5.00
Human MDR1 [16]
  Papp A→B at 5 µM: 1.3 ×10⁻⁶ cm/s
D(2) dopamine receptor [17]
  pIC50: < 5.30
